In patent publication US20220290237A1, “METHOD FOR PREDICTING THE RESPONSE OF ANTIPSYCHOTIC DRUGS” (INSERM (INSTITUT NATIONAL DE LA SANTÉ ET DE LA RECHERCHE …, priority 2019, published 2022):

Tested on: total RNA from blood samples
Assay: qRT-PCR replication of expression changes after amisulpride treatment in 24 independent subjects
Assay type: in vivo, human
Details: 4 weeks amisulpride
Procedure: Total RNA was extracted from blood samples, collected in PAXgene Blood RNA tubes, with the PAXgene Blood miRNA Kit (QIAGEN GmbH, Hilden, Germany) using a standard protocol on QlAcube robot (QIAGEN). A DNase digestion procedure was added after extraction. Total RNA was purified using the RNA Clean & Concentrator™-5 kit following the manufacturer's instructions (Zymo Research Corp., Irvine, USA). RNA quantification was performed on a NanoDrop™ 8000 spectrophotometer, in duplicate. The quality and integrity of the RNA samples were assessed using an Agilent Bioanalyzer 2100 and the RNA6000 Nano Labchip kit (Agilent Technologies). Only samples with an RNA integrity number (RIN) higher than 7 were selected. Three hundred and seventy-six RNA samples fulfilled quality control criteria for RNA-seq analyses, corresponding to two RNA samples (one at inclusion and one after 4 weeks of treatment) for 188 subjects. Forty-eight additional RNAs were available for replication studies, in 24 independent subjects.
Five-hundred nanograms of total RNA was reverse-transcribed using the High-Capacity cDNA Reverse Transcription kit following standard protocol (Thermo Fisher Scientific, Waltham, Mass., U.S.A.). Mixtures of the cDNAs and the TaqMan Universal PCR Master Mix were further loaded in the 384-well low density TaqMan array microfluidic cards (Thermo Fisher Scientific). Real-time PCR reactions were then carried out in an ABI Prism 7900HT sequence detection system (Thermo Fisher Scientific) using manufacturer's instructions. Each assay was carried out in duplicate and threshold cycle (Ct) values were automatically calculated by the SDS 2.2 software (Thermo Fisher Scientific), after having manually set the analysis threshold. Two reference genes (18S, and GUSB) with various expression levels were included in the analyses to perform a relative RNA quantification, using the most suitable reference gene.
For the qRT-PCR analysis, ΔCt values of each gene of interest were calculated before and after treatment and then normalized by subtracting the ΔCt values of the reference gene to generate ΔΔCt values. To select genes with significant expression changes after treatment, the medians of fold changes (2-ΔΔCt) were subsequently compared to a reference (Me=1) using Wilcoxon Rank Sum Test, and an adjusted p-values below 0.1 was considered to be significant.
To validate these DEGs, we used qRT-PCR in 24 independent subjects from the OPTiMiSE cohort, who were not included in the RNA-seq analyses and with a more than 20% improvement in total PANSS score after treatment (FIG. 1). We selected only brain-expressed protein-coding genes that were differentially expressed after treatment in good responders only. In addition, we restricted our selection to genes for which the expression change was correlated with symptom improvement (Table 1). […] In addition, two genes (P4HA2 and TRPC6) were removed from replication studies, because they were not detectable by qRT-PCR. Eleven genes were thus tested in the replication sample.

CCN1CCCC1CNC(=O)c1cc(S(=O)(=O)CC)c(N)cc1OC (centres unmarked) [amisulpride, 4-amino-N-((1-ethyl-2-pyrrolidinyl)methyl)-5-(etgylsulfonyl)-2-methoxybenzamide]
FC, fold-change at week 4 relative to the expression level at inclusion: ACSL5 (ACSL5, replication sample (n = 24)): 1.06
FC, fold-change at week 4 relative to the expression level at inclusion: ALPL (ALPL, replication sample (n = 24)): 0.77
FC, fold-change at week 4 relative to the expression level at inclusion: CA4 (CA4, replication sample (n = 24)): 0.71
FC, fold-change at week 4 relative to the expression level at inclusion: DGAT2 (DGAT2, replication sample (n = 24)): 0.73
FC, fold-change at week 4 relative to the expression level at inclusion: DHRS13 (DHRS13, replication sample (n = 24)): 0.82
FC, fold-change at week 4 relative to the expression level at inclusion: GALNT14 (GALNT14, replication sample (n = 24)): 0.76
FC, fold-change at week 4 relative to the expression level at inclusion: HOMER3 (HOMER3, replication sample (n = 24)): 0.84
FC, fold-change at week 4 relative to the expression level at inclusion: KAZN (KAZN, replication sample (n = 24)): 0.67
FC, fold-change at week 4 relative to the expression level at inclusion: KIAA0319 (KIAA0319, replication sample (n = 24)): 0.77
FC, fold-change at week 4 relative to the expression level at inclusion: SLC4A4 (SLC4A4, replication sample (n = 24)): 0.84
FC, fold-change at week 4 relative to the expression level at inclusion: WLS (WLS, replication sample (n = 24)): 0.85
